Reference: US12364689B2, “Dosage regimen for the treatment of cancer” (AstraZeneca AB, priority 2020, dated 2025)
“Also recorded” adds a separate entry of the source.

Assays:
[1] = Phase 1 clinical trial: pharmacokinetics of AZD9833 in plasma; format: in vivo, human
Excerpt: The “median terminal half-life” is the median time for a patient's drug blood plasma concentration to halve after reaching pseudo-equilibrium.
Pharmacokinetics: The characterisation of the pharmacokinetics of single and multiple doses of AZD9833 is a secondary objective of this study. Any residual sample remaining after PK analysis has been performed may be used to identify, characterise, and establish the concentration of AZD9833 metabolites and drug-related products in plasma, and/or to conduct exploratory biomarker research. Analysis of AZD9833 in plasma and urine will be performed using appropriate bioanalytical methods. Full details of the analytical methods used will be described in separate bioanalytical reports.
All samples within the known stability of the analytes of interest at the time of receipt by the bioanalytical laboratory will be analysed. In addition, the PK samples may be subjected to further analyses to identify, characterise, and establish the concentration of metabolites in plasma. Any results from such analyses will be reported separately from the clinical study report. Incurred sample reproducibility analysis, if any, will be performed with the bioanalysis of the test samples. The results from the evaluation will not be reported in the clinical study report but, separately, in a bioanalytical report. […]

[2] = tested on: women with ER+ HER2- advanced breast cancer; assay: Phase 1 clinical trial: safety and tolerability (AEs, DLTs); format: in vivo
Procedure: “Grade 4 or 5 adverse events” can be classified according to the common terminology criteria for adverse events (CTCAE).
Dose Limiting Toxicity (DLT): a DLT is defined as an AE or abnormal laboratory value that occurs from the first dose of AZD9833 up to and including Day 28, Cycle 1 (the DLT period) that is assessed as unrelated to disease progression, intercurrent illness, or concomitant medications and that, despite optimal therapeutic intervention, meets any of the following criteria: • (a) Any death not clearly due to the underlying disease or extraneous causes • (b) Haematological toxicities as follows (CTCAE): • (i) Any >Grade 4 haematological toxicity present for more than 4 consecutive days, or requiring blood transfusions, G-CSF, or erythropoietins. • (ii)>Grade 3 neutropenia of any duration accompanied with fever ≥38.5° C. and/or systemic infection. • (iii)>Grade 3 thrombocytopenia of any duration with bleeding. • (iv) Grade 4 thrombocytopenia (regardless of duration or bleeding) • (c) Any non-haematological toxicity CTCAE >Grade 3 but with the following conditional stipulations: • (i) Nausea >CTCAE Grade 3 for more than 3 consecutive days despite administration of maximal anti-emetic therapy. • (ii) Vomiting >CTCAE Grade 3 for more than 3 consecutive days despite administration of maximal anti-emetic therapy. • (iii) Vomiting >CTCAE Grade 4 (regardless of duration) • (iv) Diarrhoea >CTCAE Grade 3 for more than 3 consecutive days despite administration of maximal anti-diarrheal therapy. • (v) Diarrhoea ≥ CTCAE Grade 4 (regardless of duration) • (vi) CTCAE Grade ≥3 fatigue that persists for more than 4 days. • (vii) CTCAE Grade ≥3 increase in creatinine. • (d) Other toxicity: • (i) QTcF value >500 ms or QTcF prolongation from baseline by 60 ms and >480 ms confirmed on at least 2 separate ECGs. • (ii)>CTCAE Grade 4 electrocardiogram QT corrected interval prolongation. • (iii) An increase in serum/plasma AST or ALT ≥3×ULN and concurrent TBL ≥2 ULN. • (e) Any other toxicity that: • (i) Is greater than at baseline and is clinically significant and/or unacceptable despite optimal therapeutic intervention, and is judged to be a DLT by the SRC, or • (ii) Results in a disruption of the dosing schedule of more than 14 days despite optimal therapeutic intervention.
Safety and Clinical Assessments: The safety and tolerability of AZD9833 is the primary objective of this study. Related outcome measures are DLTs, AEs/SAEs, vital signs, clinical chemistry/haematology, and ECGs.
Clinical Safety Laboratory Assessments: Clinical chemistry, haematology, and urinalysis and coagulation will be performed at a local laboratory at or near to the investigator study site. Sample tubes and sample sizes may vary depending on laboratory method used and routine practice at the study site.
A clinical trial according to the above protocol was carried out using 60 patients.

Question: With `C[C@@H]1Cc2c(ccc3[nH]ncc23)[C@@H](c2ccc(NC3CN(CCCF)C3)cn2)N1CC(F)(F)F` [AZD9833, N-(1-(3-fluoropropyl)azetidin-3-yl)-6-((6S,8R)-8-methyl-7-(2,2,2-trifluoroethyl)-6,7,8,9-tetrahydro-3H-pyrazolo[4,3-f]isoquinolin-6-yl) pyridin-3-amine] as the molecule, how does the “AZD9833 exposure versus dose” value ([1]; after multiple doses) read?
Answer: dose proportional

Question: What about the half-life ([1]; human, plasma, patients, oral QD dosing, across five doses, read-out: median terminal t1/2 (converted)) of the same molecule?
Answer: 12 h

Question: And the DLT observed ([2]; 300 mg)?
Answer: G3 QTcF prolongation

Question: What about the DLT observed ([2]; 450 mg) of the same molecule?
Answer: G3 vomiting; also recorded: a combination of G2 visual disturbance, G2 headache and G2 gait disturbance

Question: What about the “G4 or 5 AEs” value ([2]; 60 patients, all doses) of the same molecule?
Answer: No G4 or 5 AEs were reported

Question: And the “Treatment-related AE: asthenia, patients affected” value ([2]; 60 patients, all doses)?
Answer: 10%

Question: What about the “Treatment-related AE: bradycardia/sinus bradycardia, patients affected” value ([2]; 60 patients, all doses) of the same molecule?
Answer: 45%

Question: What about the “Treatment-related AE: dizziness, patients affected” value ([2]; 60 patients, all doses) of the same molecule?
Answer: 10%

Question: What about the “Treatment-related AE: fatigue, patients affected” value ([2]; 60 patients, all doses) of the same molecule?
Answer: 13%

Question: And the “Treatment-related AE: nausea, patients affected” value ([2]; 60 patients, all doses)?
Answer: 18%

Question: And the “Treatment-related AE: visual disturbances, patients affected” value ([2]; 60 patients, all doses)?
Answer: 53%

Question: What about the “Treatment-related AE: vomiting, patients affected” value ([2]; 60 patients, all doses) of the same molecule?
Answer: 10%

Question: What about the “clinical relevance of observed AEs” value ([2]; 60 patients, all doses) of the same molecule?
Answer: None of the observed AEs were deemed to be clinically relevant

Question: What about the “patients who experienced DLTs” value ([2]; of 60 patients, all doses) of the same molecule?
Answer: Three

Question: What about the “asthenia, share G1” value ([2]; of affected patients, grade 1) of the same molecule?
Answer: 67%

Question: What about the “bradycardia/sinus bradycardia, share G1” value ([2]; of affected patients, grade 1) of the same molecule?
Answer: 93%

Question: What about the “dizziness, share G1” value ([2]; of affected patients, grade 1) of the same molecule?
Answer: 83%

Question: What about the “fatigue, share G1” value ([2]; of affected patients, grade 1) of the same molecule?
Answer: 38%

Question: What about the “nausea, share G1” value ([2]; of affected patients, grade 1) of the same molecule?
Answer: 46%

Question: And the “visual disturbances, share G1” value ([2]; of affected patients, grade 1)?
Answer: 91%

Question: What about the “vomiting, share G1” value ([2]; of affected patients, grade 1) of the same molecule?
Answer: 50%

Question: And the “asthenia, share G2” value ([2]; of affected patients, grade 2)?
Answer: 33%

Question: And the “bradycardia/sinus bradycardia, share G2” value ([2]; of affected patients, grade 2)?
Answer: 7%

Question: And the “fatigue, share G2” value ([2]; of affected patients, grade 2)?
Answer: 63%

Question: And the “nausea, share G2” value ([2]; of affected patients, grade 2)?
Answer: 55%

Question: What about the “visual disturbances, share G2” value ([2]; of affected patients, grade 2) of the same molecule?
Answer: 6%

Question: What about the “vomiting, share G2” value ([2]; of affected patients, grade 2) of the same molecule?
Answer: 33%

Question: What about the “dizziness, share G3” value ([2]; of affected patients, grade 3) of the same molecule?
Answer: 17%

Question: And the “visual disturbances, share G3” value ([2]; of affected patients, grade 3)?
Answer: 3%

Question: What about the “vomiting, share G3” value ([2]; of affected patients, grade 3) of the same molecule?
Answer: 17%
